Assay [1] deals with C. elegans. As to the kind of experiment: Developmental rate (growth delay) of worms fed PG mutant E. coli with supplementation. To be noted: supplement added. In kind it is in vivo. How it is done: E. coli Keio collection screen: Bacterial peptidoglycan (PG) metabolism-related genes were determined based on the published papers (Table 1) and the PG mutant sub-library was assembled from the Keio E. coli single mutant collection. Mutant bacteria strains, as well as the wild-type control strain BW25113, were cultured overnight in LB medium with 50 μg/ml kanamycin in 96-well plates at 37° C. 100 μl of the overnight E. coli cultures were spotted onto 6 cm NGM plates and dried at room temperature for 1h before use. About 200 synchronized L1 worms were then placed on the seeded NGM plates and cultured at 20° C. Animals were screened after 54-56 hours. Worm developmental rates were determined by vulval development as previously described. To quantify the developmental rate, about 50 animals were scored under Nomarski microscope. To verify the genotypes of the 4 candidate Keio mutants, PCR were performed on each mutant colony and the control BW25113 strain using specific downstream genomic primers together with kanamycin-cassette-specific primers. […]
(§1) Quantification and Statistical analysis: ImageJ software was used for quantifying fluorescence intensity of various of reporters. […]

The subject of assay [2] is Phsp-6::gfp. Nature of the assay: Mt stress/UPRmt reporter (Phsp-6::gfp) in worms. The assay is classed as in vivo, C. elegans. The settings on record: worms fed PG mutant E. coli, supplement added. How it is done: (§2) C. elegans strains and maintenance: C. elegans strains were grown and maintained on nematode growth media (NGM) plates seeded with the Escherichia coli strain OP50 at 20° C. The following strains were obtained from Caenorhabditis Genetics Center (CGC): N2 Bristol (wild-type control strain), SJ4100: zcIs13 [Phsp-6::gfp] V, SJ4058: zcIs9 [Phsp-60::gfp+lin-15 (+)/V, SJ4197: zcIs39 [Pdve-1::dve-1::gfp] II, SJ4005: zcIs4 [Phsp-4::gfp] V, TJ375: gpIs1 [Phsp-16.2::gfp], AY101: acIs101 [PF35E12.5::gfp+rol-6(su1006)], AU133: agIs17 [Pmyo-2::mCherry+Pirg-1::gfp] IV, CF1553: muIs84 [(pAD76) sod-3p::GFP+rol-6(su1006)]. mai-2 (xm19) was obtained from Dr. R. E. Navarro (Universidad Nacional Autonoma de Mexico).
PG isolation, enzyme treatment and supplementation assays: An adapted method was used to isolate peptidoglycan from bacterial cultures. In brief, bacterial pellets were resuspended in 1/10 vol 1M NaCl solution and boiled at 100° C. in a heating block for 1 h. […]
(§3) Microscopy: Analysis of fluorescence was performed under Nomarski optics on a Zeisis Axioplan2 microscope with a Zeiss AxioCam MRm CCD camera. […]
as §1

In assay [3] the test system is C. elegans. As to the kind of experiment: Food avoidance behavior assay. The assay is classed as in vivo. The settings on record: worms fed PG mutant E. coli, supplement added. How it is done:
Food avoidance behavior assay: Food avoidance behavior assay was determined using a method adapted from a published procedure (Kniazeva et al., 2015; Melo and Ruvkun, 2012). Briefly, overnight cultures of wild type and PG mutant E. coli were adjusted to the same OD600 and 20 μl of each culture was seeded on the center of 6 cm NGM plates. The seeded plates were dried at room temperature for 1 hour before use. About 100 synchronized L1 animals were then dropped onto the bacterial lawns and cultured for 45 hours at 20° C. The avoidance index was determined by Noff/on/Ntotal. Each assay was conducted in triplicate.
Heat-killed E. coli preparation and supplementation: We followed an established protocol to prepare heat-killed (HK) E. coli: standard overnight bacterial cultures were concentrated to 1/10 vol and were then heated in a 75° C. water bath for 90 min. For HK-E. coli supplementation, live E. coli and HK-E. coli were mixed at a 1:1 ratio then 20 μl (avoidance behavior assay) or 50 μl (other assays) mixtures were dropped on the NGM plates and dried at room temperature for 10 min before use. About 100-200 synchronized L1 animals were placed on the bacterial lawn to grow at 20° C.
PG isolation, enzyme treatment and supplementation assays: An adapted method was used to isolate peptidoglycan from bacterial cultures. […]

The test system of assay [4] is SOD-3::GFP. As to the kind of experiment: SOD-3::GFP oxidative stress reporter in worms. The assay is classed as in vivo, C. elegans. The settings on record: worms fed erfK mutant E. coli. The procedure:
as §2
Chemical supplementation: The NAC (Fisher Scientific, ICN10009825) stock solution (500 mM) was made in ddH2O. For NAC supplementation, NAC solution was added in NGM agar to the final concentration of 50 mM. For iron supplementation, FeCl3 (Sigma, 236489) was dissolved in ddH2O to generate solutions of desired concentration (2 mM, 8 mM and 20 mM). […]
as §3, §1

The subject of assay [5] is ROS. As to the kind of experiment: ROS staining (H2DCFDA) in C. elegans. The assay is classed as in vivo. The settings on record: worms fed erfK mutant E. coli. The procedure:
ROS measurements in C. elegans: The ROS staining protocol was modified from. Briefly, L4 stage animals were collected and washed three times with M9 buffer to remove the bacteria. Then the worms were transferred into the staining solution (H2DCFDA, 50 uM in M9 buffer) and incubated for 30 min at 20° C. After washing twice with M9 buffer, worms were subjected to microscopic examination.

Structures are written as SMILES.

Turning to `CC(=O)N[C@@H](CS)C(=O)O` [NAC, N-acetyl-L-cysteine], the “growth delay (developmental delay)” value in assay [1] is reported as “significantly suppressed”. In assay [2], the “Mt stress (Phsp-6::gfp)” value is reported as “significantly suppressed”. Besides, the food avoidance behavior result in assay [3] is on record as “significantly suppressed”. Further, in assay [4], the “increase in SOD-3 level (SOD-3::GFP)” value is reported as “eliminated”. The “ROS level (H2DCFDA staining)” value in assay [5] is “suppressed”.

For the compound `[Cl][Fe]([Cl])[Cl]` [iron, FeCl3], the “growth delay (developmental delay)” value in assay [1] is “could not suppress”. The “Mt stress (Phsp-6::gfp)” value in assay [2] is “could not suppress”.
